Patent US20120283332A1 (OHIO UNIVERSITY, priority 2009, published 2012)

What was measured:
Type 2 diabetes = conditions: human, in vivo
Source text: They had recently stopped all diabetic medications due to side effects. They wished to stay off insulin due to the risk of gaining weight.
Labs: Hgb A1C 11.2%, Total Cholesterol: 159, Triglycerides: 284, HDL: 32, LDL: 70
The patient was not on any diabetic medications due to intolerable gastrointestinal side effects. […] It was decided that an alternative drug delivery mechanism would be appropriate. […] The patient was educated on the usage of the gel, how to apply the gel and potential side effects. The patient was to contact the physician if any adverse effects occurred. […] The patient was to follow-up in one month.
The patient stated that there had been no lifestyle changes.
Lipids were collected with results of total cholesterol: 119, triglycerides: 209, HDL: 29, LDL: 48.
They were interested in trying a medication that will cover their through the evening to get their BS to 200 mg/dL in the morning. They were concerned with anything that will cause them to gain weight.

DM2 = conditions: oral metformin
[1] = cited from earlier work
[2] = oral; cited from earlier work

Row | SMILES | tolerability of previously tried diabetic medications (Type 2 diabetes) | BS readings (DM2; before it was stopped) | side effects leading to stopping (DM2; stopped 3 months prior to visit) | patients experiencing a gastrointestinal side effect ([1]; oral metformin, anorexia, nausea, vomiting, abdominal discomfort, diarrhea) | patients discontinuing therapy due to side effects ([1]; oral metformin) | patients developing vitamin B12 deficiency ([1]; patients taking metformin) | absorption time [2]
1 | CN(C)C(=N)N=C(N)N [metformin] | unable to tolerate | improved | severe gastrointestinal side effects | Up to 20% | up to 5% | 77% | 6 h
2 | CCc1ccc(CCOc2ccc(CC3SC(=O)NC3=O)cc2)nc1 (stereo not drawn) [pioglitazone] | unable to tolerate |  |  |  |  |  | 
3 | N[C@@H](CC(=O)N1CCn2c(nnc2C(F)(F)F)C1)Cc1cc(F)c(F)cc1F [sitagliptin] | unable to tolerate |  |  |  |  |  | 
